Laboratory results published in article doi:10.1101/2023.05.15.540828, “Optimization of 3-Cyano-7-cyclopropylamino-pyrazolo[1,5-a]pyrimidines Toward the Development of an In Vivo Chemical Probe for CSNK2A” (bioRxiv, 2023).

How the values were obtained:
[1] = biological target: T1, CSNK2A1 (Homo sapiens, UniProt P68400); assay: NanoBRET in-cell target engagement, Tracer K10 displacement, HEK293; format: cell-based
T1 construct: CSNK2A-NLuc fusion

[2] = biological target: T2, CSNK2A2 (Homo sapiens, UniProt P19784); assay: as above; format: cell-based
T2 construct: CSNK2A-NLuc fusion
T2 sequence (P19784 whole entry, the tested form may be a part): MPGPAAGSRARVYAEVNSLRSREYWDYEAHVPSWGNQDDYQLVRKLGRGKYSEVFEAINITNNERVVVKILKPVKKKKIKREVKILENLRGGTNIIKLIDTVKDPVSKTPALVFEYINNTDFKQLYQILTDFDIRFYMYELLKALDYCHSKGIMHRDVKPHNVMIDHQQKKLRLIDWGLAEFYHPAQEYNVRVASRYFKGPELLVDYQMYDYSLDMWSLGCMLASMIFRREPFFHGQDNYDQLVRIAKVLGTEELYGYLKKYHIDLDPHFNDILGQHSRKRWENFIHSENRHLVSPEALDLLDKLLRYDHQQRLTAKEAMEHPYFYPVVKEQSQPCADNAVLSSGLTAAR

T1 sequence (P68400 whole entry, the tested form may be a part): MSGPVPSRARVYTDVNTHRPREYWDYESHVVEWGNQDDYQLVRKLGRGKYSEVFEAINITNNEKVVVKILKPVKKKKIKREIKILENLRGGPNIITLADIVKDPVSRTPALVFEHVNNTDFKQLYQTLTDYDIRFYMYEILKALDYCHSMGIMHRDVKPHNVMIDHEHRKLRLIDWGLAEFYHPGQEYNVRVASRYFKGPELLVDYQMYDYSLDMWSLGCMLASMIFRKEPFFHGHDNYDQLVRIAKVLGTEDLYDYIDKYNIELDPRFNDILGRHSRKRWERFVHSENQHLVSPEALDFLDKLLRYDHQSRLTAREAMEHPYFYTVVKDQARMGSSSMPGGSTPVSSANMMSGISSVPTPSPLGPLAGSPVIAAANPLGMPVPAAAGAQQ

Structure (SMILES): CN[C@H]1CCCN(c2ccc(Nc3cc(NC4CC4)n4ncc(C#N)c4n3)cc2NC(C)=O)C1 [2c, (S)-N-(5-((3-cyano-7-(cyclopropylamino)pyrazolo[1,5-a]pyrimidin-5-yl)amino)-2-(3-(methylamino)piperidin-1-yl)phenyl)acetamide]
- [drawing 10] / CSNK2A1 pIC50^a [1]: 8.3 pIC50
- [drawing 10] / CSNK2A2 pIC50^a [2]: 8.4 pIC50

Structure (SMILES): CN[C@@H]1CCN(c2ccc(Nc3cc(NC4CC4)n4ncc(C#N)c4n3)cc2NC(C)=O)C1 [2d, (R)-N-(5-((3-cyano-7-(cyclopropylamino)pyrazolo[1,5-a]pyrimidin-5-yl)amino)-2-(3-(methylamino)pyrrolidin-1-yl)phenyl)acetamide]
- [drawing 10] / CSNK2A1 pIC50^a [1]: 8.6 pIC50
- [drawing 10] / CSNK2A2 pIC50^a [2]: 8.8 pIC50

Structure (SMILES): CN[C@H]1CCN(c2ccc(Nc3cc(NC4CC4)n4ncc(C#N)c4n3)cc2NC(C)=O)C1 [2e, (S)-N-(5-((3-cyano-7-(cyclopropylamino)pyrazolo[1,5-a]pyrimidin-5-yl)amino)-2-(3-(methylamino)pyrrolidin-1-yl)phenyl)acetamide]
- [drawing 10] / CSNK2A1 pIC50^a [1]: 8.3 pIC50
- [drawing 10] / CSNK2A2 pIC50^a [2]: 8.4 pIC50

Structure (SMILES): CC(=O)Nc1cc(Nc2cc(NC3CC3)n3ncc(C#N)c3n2)ccc1N(C)C[C@@H]1CCCN1 [2f, (S)-N-(5-((3-cyano-7-(cyclopropylamino)pyrazolo[1,5-a]pyrimidin-5-yl)amino)-2-(methyl(pyrrolidin-2-ylmethyl)amino)phenyl)acetamide]
- [drawing 10] / CSNK2A1 pIC50^a [1]: 8.4 pIC50
- [drawing 10] / CSNK2A2 pIC50^a [2]: 8.5 pIC50

Structure (SMILES): CC(=O)Nc1cc(Nc2cc(NC3CC3)n3ncc(C#N)c3n2)ccc1N[C@@H]1CCCOC1 [2m, (R)-N-(5-((3-cyano-7-(cyclopropylamino)pyrazolo[1,5-a]pyrimidin-5-yl)amino)-2-((tetrahydro-2H-pyran-3-yl)amino)phenyl)acetamide]
- [drawing 10] / CSNK2A1 pIC50^a [1]: 8.0 pIC50
- [drawing 10] / CSNK2A2 pIC50^a [2]: 8.1 pIC50
